According to US20200131669A1, “CYCLIC PEPTIDE COMPOUND HAVING HIGH MEMBRANE PERMEABILITY, AND LIBRARY CONTAINING SAME” (Chugai Seiyaku Kabushiki Kaisha, priority 2017, published 2020):
Starred links: 1 amine or outer side, 2 acyl side, 3 side chain; linkers in the order of their positions; H or OH if unused. Positions of bridges follow the written chain, without caps; N, C: chain ends. Non-standard residues stand in square brackets, D forms with d. Residues, ends and D or L forms follow the SMILES beside them. ξ: configuration not given here. *: point of attachment. X6 = CN([C@@H](CCN1CCC(F)(F)CC1)C(=O)[*:2])[*:1]; Glu(NHSO2Me) = CS(=O)(=O)NC(=O)CC[C@H](N)C(=O)O; Phe(4-CF3) = N[C@@H](Cc1ccc(C(F)(F)F)cc1)C(=O)O; 3Pal(6-NMe2) = CN(C)c1ccc(C[C@H](N)C(=O)O)cn1; NMePhe(3-Cl) = CN[C@@H](Cc1cccc(Cl)c1)C(=O)O; X12 = CCCC[C@@H](O)[C@H](N[*:1])C(=O)[*:2]; hPhe(3-Cl) = N[C@@H](CCc1cccc(Cl)c1)C(=O)O; NMehPhe = CN[C@@H](CCc1ccccc1)C(=O)O; Hyp = O=C(O)[C@@H]1C[C@@H](O)CN1; NMeF = CN[C@@H](Cc1ccccc1)C(=O)O; NMeI = CC[C@H](C)[C@H](NC)C(=O)O; hPhe = N[C@@H](CCc1ccccc1)C(=O)O; 3Pal = N[C@@H](Cc1cccnc1)C(=O)O; ξThr(3R) = C[C@@H](O)C(N)C(=O)O; NMeL = CN[C@@H](CC(C)C)C(=O)O; dNMeL = CN[C@H](CC(C)C)C(=O)O; NMeNva = CCC[C@H](NC)C(=O)O; NMeV = CN[C@H](C(=O)O)C(C)C; NMeAbu = CC[C@H](NC)C(=O)O; NMeA = CN[C@@H](C)C(=O)O; Piperidide = C1CCN(*)CC1; Abu = CC[C@H](N)C(=O)O; Me2NCH2CH2 = CN(C)CC*; NBuGly = CCCCNCC(=O)O; Isopentyl = CC(C)CC*; NPrGly = CCCNCC(=O)O; Ethyl(2-OH) = OCC*; ξS = NC(CO)C(=O)O; Sar = CNCC(=O)O; tBu = CC(C)(C)*

Experiment: Caco-2 membrane permeability, improved method as used in the following Examples (96-well, 20 to 24 h preincubation)
Format: in vitro ADME
Details: human, Caco-2, Caco-2
How it was run: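 Caco-2 monolayers were grown three weeks and preincubated 20–24 h at 37 °C with compound in DMEM+FaSSIF (1% DMSO) apically. The assay then used compound in FaSSIF/HBSS (1% DMSO, pH 6.0) apically and HBSS with 4% BSA (pH 7.4) basally. Basal samples were taken at 180 min for LC/MS, and Papp (cm/sec) was calculated.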
Work on `CCC[C@H]1C(=O)N[C@@H](CC(C)C)C(=O)N(C)[C@@H](CC(C)C)C(=O)N[C@@H]([C@@H](C)O)C(=O)N2C[C@H](OCC)C[C@H]2C(=O)N(C)[C@@H](CC(C)C)C(=O)N[C@@H]([C@@H](C)CC)C(=O)N(C)[C@@H](CC(C)C)C(=O)N2CCC[C@H]2C(=O)N[C@H](C(=O)N2CCCCC2)CC(=O)N(C)[C@H](CC(C)C)C(=O)N1C` [pd381] ([dNMeL][NMeNva]L[NMeL]T[Hyp](Et)[NMeL]I[NMeL]PD-Piperidide; lactam N-11) yielded a Papp A→B at 180 min of 5.6 ×10⁻⁶ cm/s. Work on `CC(=O)NCCCC[C@@H]1NC(=O)[C@H](CC(C)C)N(C)C(=O)[C@H](CC(C)C)NC(=O)[C@H](Cc2ccccc2)N(C)C(=O)[C@@H](CC(C)C)NC(=O)C[C@@H](C(=O)N2CCCCC2)NC(=O)[C@H](C(C)C)N(C)C(=O)[C@H](Cc2ccccc2)N(C)C(=O)[C@H](COC(C)(C)C)NC(=O)[C@H](CC(C)C)N(C)C(=O)CN(C)C1=O` [pd471] ([dL][NMeF]L[NMeL]K(Ac)[Sar][NMeL]S(tBu)[NMeF][NMeV]D-Piperidide; lactam N-11) yielded a Papp A→B at 180 min of 2.1 ×10⁻⁶ cm/s. Compound `CCCCN1CC(=O)N(C)[C@@H](Cc2ccccc2)C(=O)N[C@@H](CC(C)C)C(=O)N(C)[C@@H](CC(C)C)C(=O)N[C@@H]([C@@H](C)O)C(=O)N(C)CC(=O)N(C)[C@@H](Cc2ccccc2)C(=O)N(C)[C@@H](CCN2CCC(F)(F)CC2)C(=O)N[C@@H](CC(C)C)C(=O)N(C)[C@@H](C(C)C)C(=O)N[C@H](C(=O)N2CCCCC2)CC1=O` [pd395] ([NBuGly][NMeF]L[NMeL]T[Sar][NMeF][X6]L[NMeV]D-Piperidide; lactam N-11) has a Papp A→B at 180 min of 1.7 ×10⁻⁶ cm/s. `CCCCN1CC(=O)N(C)[C@@H](Cc2cccc(Cl)c2)C(=O)N[C@@H](CCC(=O)NS(C)(=O)=O)C(=O)N(C)[C@@H](CC(C)C)C(=O)N[C@@H]([C@@H](C)O)C(=O)N(CCCC)CC(=O)N(C)[C@@H](Cc2ccccc2)C(=O)N(C)[C@@H](CC(C)C)C(=O)N[C@@H](CC(C)C)C(=O)N(C)[C@@H](CC(C)C)C(=O)N[C@H](C(=O)N2CCCCC2)CC1=O` [pd66] ([NBuGly][NMePhe(3-Cl)][Glu(NHSO2Me)][NMeL]T[NBuGly][NMeF][NMeL]L[NMeL]D-Piperidide; lactam N-11) showed a Papp A→B at 180 min of 0.09 ×10⁻⁶ cm/s. `CCCN1CC(=O)N(C)[C@@H](C(C)C)C(=O)N[C@H](C(=O)N2CCCCC2)CC(=O)N(C)[C@@H](C)C(=O)N[C@@H](CC(C)C)C(=O)N(C)[C@@H](CC(C)C)C(=O)N(C)[C@@H](Cc2ccccc2)C(=O)NC(COCCN(C)C)C(=O)N(C)[C@@H](Cc2ccccc2)C(=O)N(C)[C@@H](CC(C)C)C(=O)N[C@@H]([C@@H](C)O)C1=O` (stereo partly drawn) [pd57] ([NMeA]L[NMeL][NMeF][ξS](Me2NCH2CH2)[NMeF][NMeL]T[NPrGly][NMeV]D-Piperidide; lactam N-11) showed a Papp A→B at 180 min of 0.12 ×10⁻⁶ cm/s. Compound `CCCCN1CC(=O)N(C)[C@@H](CC(C)C)C(=O)N[C@@H](Cc2ccc(N(C)C)nc2)C(=O)N(C)[C@@H](CC(C)C)C(=O)N[C@@H]([C@@H](C)O)C(=O)N(C)CC(=O)N(C)[C@@H](Cc2ccccc2)C(=O)N(C)[C@@H](CC(C)C)C(=O)N[C@@H](COCCC(C)C)C(=O)N(C)[C@@H](C)C(=O)N[C@H](C(=O)N2CCCCC2)CC1=O` [pd402] ([NBuGly][NMeL][3Pal(6-NMe2)][NMeL]T[Sar][NMeF][NMeL]S(Isopentyl)[NMeA]D-Piperidide; lactam N-11) has a Papp A→B at 180 min of 1 ×10⁻⁶ cm/s. Work on `CCCCN1CC(=O)N(C)[C@@H](C(C)C)C(=O)N[C@H](C(=O)N2CCCCC2)CC(=O)N(C)[C@@H](CC)C(=O)N[C@@H](CCC(=O)NS(C)(=O)=O)C(=O)N(C)[C@@H](CC(C)C)C(=O)N(C)[C@@H](Cc2cccc(Cl)c2)C(=O)N[C@@H](CC(C)C)C(=O)N(C)[C@@H](Cc2ccccc2)C(=O)N(C)[C@@H](CC(C)C)C(=O)N[C@@H]([C@@H](C)O)C1=O` [pd63] ([NMeAbu][Glu(NHSO2Me)][NMeL][NMePhe(3-Cl)]L[NMeF][NMeL]T[NBuGly][NMeV]D-Piperidide; lactam N-11) yielded a Papp A→B at 180 min of less than 0.1 ×10⁻⁶ cm/s. With `CC(C)C[C@@H]1NC(=O)[C@H](Cc2ccccc2)N(C)C(=O)[C@H](C)N(C)C(=O)C[C@@H](C(=O)N2CCCCC2)NC(=O)[C@H](CC(C)C)N(C)C(=O)[C@H](CC(C)C)N(C)C(=O)[C@H](COC(C)(C)C)NC(=O)[C@H](CC(C)C)N(C)C(=O)[C@H](C)N(C)C(=O)[C@H](CCC(=O)N(C)C)NC(=O)[C@H](CC(C)C)N(C)C1=O` [pd440] ([NMeA][NMeF]L[NMeL]E(NMe2)[NMeA][NMeL]S(tBu)[NMeL][NMeL]D-Piperidide; lactam N-11) the Papp A→B at 180 min was 4 ×10⁻⁶ cm/s. Work on `CC(C)C[C@H]1C(=O)N[C@@H](CCc2cccc(Cl)c2)C(=O)N(C)[C@@H](CC(C)C)C(=O)N[C@@H]([C@@H](C)O)C(=O)N(C)CC(=O)N(C)[C@@H](Cc2ccccc2)C(=O)N(C)[C@@H](CC(C)C)C(=O)N[C@@H](COC(C)(C)C)C(=O)N(C)[C@@H](C(C)C)C(=O)N[C@H](C(=O)N2CCCCC2)CC(=O)N(C)CC(=O)N1C` [pd357] ([Sar][NMeL][hPhe(3-Cl)][NMeL]T[Sar][NMeF][NMeL]S(tBu)[NMeV]D-Piperidide; lactam N-11) yielded a Papp A→B at 180 min of 1.3 ×10⁻⁶ cm/s. `CCCCN1CC(=O)N(C)[C@@H](CC(C)C)C(=O)N[C@H](C(=O)N2CCCCC2)CC(=O)N(C)[C@@H](CC(C)C)C(=O)N[C@@H](CC(C)C)C(=O)N(C)[C@@H](CC)C(=O)N(C)[C@@H](Cc2ccccc2)C(=O)N[C@@H](CCC(=O)NS(C)(=O)=O)C(=O)N(C)[C@@H](Cc2cccc(Cl)c2)C(=O)N(C)[C@@H](CC(C)C)C(=O)NC([C@@H](C)O)C1=O` (stereo partly drawn) [pd64] ([NMeL]L[NMeAbu][NMeF][Glu(NHSO2Me)][NMePhe(3-Cl)][NMeL][ξThr(3R)][NBuGly][NMeL]D-Piperidide; lactam N-11) showed a Papp A→B at 180 min of 0.15 ×10⁻⁶ cm/s. For `CCCC[C@@H](O)[C@@H]1NC(=O)[C@H](CC(C)C)N(C)C(=O)[C@H](C)NC(=O)[C@H](Cc2ccccc2)N(C)C(=O)[C@@H](C(C)C)NC(=O)C[C@@H](C(=O)N2CCCCC2)NC(=O)[C@H](C)N(C)C(=O)[C@H](Cc2ccccc2)N(C)C(=O)[C@H](COC(C)(C)C)NC(=O)[C@H](CC(C)C)N(C)C(=O)CN(C)C1=O` [pd467] ([dV][NMeF]A[NMeL][X12][Sar][NMeL]S(tBu)[NMeF][NMeA]D-Piperidide; lactam N-11), the Papp A→B at 180 min was 1.4 ×10⁻⁶ cm/s. In the case of `CC[C@H](C)[C@H]1C(=O)N[C@@H](COCCO)C(=O)N(C)CC(=O)N(C)[C@@H](CC(C)C)C(=O)N[C@H](C(=O)N2CCCCC2)CC(=O)N(C)[C@@H](C)C(=O)N[C@@H](CC(C)C)C(=O)N(C)[C@@H](CC(C)C)C(=O)N(C)[C@@H](Cc2ccccc2)C(=O)N[C@@H](CC(C)C)C(=O)N(C)[C@@H](Cc2ccccc2)C(=O)N1C` [pd499] ([NMeA]L[NMeL][NMeF]L[NMeF][NMeI]S(Ethyl(2-OH))[Sar][NMeL]D-Piperidide; lactam N-11), the Papp A→B at 180 min is reported as 4.7 ×10⁻⁶ cm/s.

Same assay, conditions: human, Caco-2, Caco-2 (cm/sec)
Work on `CC(C)C[C@@H]1NC(=O)[C@H](CC(C)C)N(C)C(=O)[C@H](C(C)C)NC(=O)C[C@@H](C(=O)N2CCCCC2)NC(=O)[C@H](CC(C)C)N(C)C(=O)[C@H](Cc2ccccc2)N(C)C(=O)[C@H]([C@@H](C)O)NC(=O)[C@H](Cc2ccc(C(F)(F)F)cc2)NC(=O)[C@H](C)N(C)C1=O` [pd145] (V[NMeL]L[NMeA][Phe(4-CF3)]T[NMeF][NMeL]D-Piperidide; lactam N-9) yielded a Papp A→B at 180 min of 1.2 ×10⁻⁶ cm/s. Compound `CC[C@@H]1NC(=O)[C@H](C(C)C)N(C)C(=O)[C@@H](C(C)C)NC(=O)C[C@@H](C(=O)N2CCCCC2)NC(=O)[C@H](CC(C)C)N(C)C(=O)[C@H](Cc2cccc(Cl)c2)N(C)C(=O)[C@H](COC(C)(C)C)NC(=O)[C@H](CC(C)C)N(C)C(=O)CN(C)C(=O)[C@H](Cc2cccnc2)NC(=O)[C@H](CC(C)C)N(C)C1=O` [pd164] ([dV][NMeV][Abu][NMeL][3Pal][Sar][NMeL]S(tBu)[NMePhe(3-Cl)][NMeL]D-Piperidide; lactam N-11) has a Papp A→B at 180 min of 1.6 ×10⁻⁶ cm/s. With `CC(C)C[C@H]1C(=O)N(C)[C@@H](CCc2ccccc2)C(=O)N[C@@H](COC(C)(C)C)C(=O)N(C)[C@@H](C)C(=O)N[C@H](C(=O)N2CCCCC2)CC(=O)N(C)[C@@H](C)C(=O)N(C)[C@@H](Cc2ccccc2)C(=O)N[C@@H](CCc2ccccc2)C(=O)N(C)[C@@H](CC(C)C)C(=O)N[C@@H]([C@@H](C)O)C(=O)N(C)CC(=O)N1C` [pd184] ([NMeA][NMeF][hPhe][NMeL]T[Sar][NMeL][NMehPhe]S(tBu)[NMeA]D-Piperidide; lactam N-11) the Papp A→B at 180 min was 1.2 ×10⁻⁶ cm/s. With `CC(C)C[C@@H]1NC(=O)[C@H](Cc2ccccc2)N(C)C(=O)[C@@H](C(C)C)NC(=O)C[C@@H](C(=O)N2CCCCC2)NC(=O)[C@H](Cc2ccccc2)N(C)C(=O)[C@H](Cc2ccccc2)N(C)C(=O)[C@H](C(C)C)NC(=O)[C@H](CC(C)C)N(C)C(=O)CN(C)C(=O)[C@H]([C@@H](C)O)NC(=O)[C@H](CC(C)C)N(C)C1=O` [pd221] ([dV][NMeF]L[NMeL]T[Sar][NMeL]V[NMeF][NMeF]D-Piperidide; lactam N-11) the Papp A→B at 180 min was 1.1 ×10⁻⁶ cm/s.

Same assay, conditions: human, Caco-2; read-out: Caco-2
In the case of `CC(C)C[C@@H]1NC(=O)[C@H](CC(C)C)N(C)C(=O)[C@H](C(C)C)NC(=O)C[C@@H](C(=O)N2CCCCC2)NC(=O)[C@H](CC(C)C)N(C)C(=O)[C@H]([C@@H](C)O)NC(=O)[C@H](Cc2ccc(C(F)(F)F)cc2)NC(=O)[C@H](CC(C)C)N(C)C(=O)[C@H](C)N(C)C1=O` [pd146] (V[NMeL]L[NMeA][NMeL][Phe(4-CF3)]T[NMeL]D-Piperidide; lactam N-9), the Papp A→B at 180 min is reported as 1.7 ×10⁻⁶ cm/s.
